Experiment: Solubility of EDOT^PEGn-HTL monomer variants in various solvents
Type: physicochemical
Settings: compared among three variants (n=1,2,3)
Excerpt: EDOT conjugates with HTL have not been reported previously. Initially a series of EDOT^PEGn-HTL monomers (n=1,2,3, . . . ) were synthesized, wherein it was anticipated that increasing the number of PEG repeats would improve solubility, at the risk of exacerbating sidechain steric interference (FIG. 2A). The HTL modification increases the molecular weight of the monomer. The unmodified EDOT has a molecular weight (MW) of […]; while EDOT^PEGn-HTL has a MW of 551 (n=1), 595 (n=2), 639 (n=3), or MW of 507+44×n. Thus, all of the candidate designs carry substantial steric bulk, which is inevitable.
Several conditions were tested, including various solvents, against the three variants. […] EDOT^PEG3-HTL was unable to be polymerized with PSS as the counter-ion. Specifically, whereas the formation of PEDOT:PSS is accompanied by an unmistakable darkening of a gold surface (i.e., the polymer is visible to the naked eye), no visual indication of polymerization was seen when EDOT was replaced with EDOT^PEG3-HTL (FIG. 3A and FIG. 3B). This held true over a wide range of voltage parameters and concentrations.

solubility: most soluble
Compound: O=C(CCOCCOCCOCCNC(=O)COCC1COc2cscc2O1)NCCOCCOCCCCCCCl (stereo not shown) [EDOT^PEG3-HTL, N-(2-(2-((6-chlorohexyl)oxy)ethoxy)ethyl)-3-((1-(2,3-dihydrothieno[3,4-b][1,4]dioxin-2-yl)-4-oxo-2,8,11-trioxa-5-azatridecan-13-yl)oxy)propanamide]

— patent publication US20240352183A1, “CONDUCTIVE POLYMER WITH COVALENT CAPTURE ABILITY AND METHODS OF USING SAME” (Duke University, priority 2021, published 2024)
